Patent publication US20220288223A1, “ACTIVATABLE SPECIFIC BINDING MEMBER COMPLEXES, AND METHODS OF MAKING AND USING SAME” (The Regents of the University of California, priority 2019, published 2022)

Columns and labels:
[1] = tested on: head and neck cancer cell line (Cal-27); assay: Immunohistocytochemistry, HRP-dependent DAB staining (FIG. 4); type: cell-based
[2] = molecular target: EGFR (Homo sapiens, UniProt P00533); assay: EGFR binding curve of PA-cetuximab with and without thrombin (FIG. 4)
[3] = molecular target: Thrombin (Homo sapiens, UniProt P00734); assay: Gel electrophoresis of PA-cetuximab after thrombin treatment (FIG. 5); type: biochemical; conditions: thrombin activation
Text: Protease cleavage of blocked PA-cetuximab causes size change as CDR blocking domains is proteolytically released from cetuximab panibody. Lane 1 is a protein marker.

[4] = tested on: orthotopic Cal-27 xenograft tumors; assay: In vivo ratiometric fluorescence imaging of RACPPs in orthotopic tongue tumor model; conditions: mice, orthotopic Cal-27 tongue tumors, IV injection
Text: FIG. 2. In vivo ratiometric fluorescence imaging of RACPPs in orthotopic tongue tumor model (Cal27) for protease selective probes.

(Acety-QGQSGQCISPRGCPDGPYVMY-PEG6-(Nle-TPRSFL)-PEG24)n-cetuximab [PA-cetuximab]
Binding to Cal-27 cells (DAB staining on membranes) ([1]; FIG. 4 panel C, equivalent with no antibody control (E)): blocks binding | Binding to Cal-27 cells (DAB staining on membranes) ([1]; FIG. 4 panel D): binding | Binding to cells (Cal-27) that express EGFR ([1]; after thrombin treatment): allow binding | EGFR binding ([2]; after thrombin treatment, EGFR protein): allow binding | EGFR binding ([2]; without thrombin (solid line)): blocked | Change in size of inhibited complex on acrylamide gel [3]: size shift

KLRFSQK [Cy5/Cy7 RACPP, cathepsin cleavable probe]
Ratiometric fluorescence labeling of tumor versus adjacent tissue [4]: very selective targeting to cancerous tongue

PLGC(me)AG
Ratiometric fluorescence labeling of tumor versus adjacent tissue [4]: good cleavage in the tumor but also had high signal in adjacent tongue

TGRAAA
Ratiometric fluorescence labeling of tumor versus adjacent tissue [4]: high level localized uptake at the center of the tumor

YGRAAA
Ratiometric fluorescence labeling of tumor versus adjacent tissue [4]: tumor specific labeling at high intensity with very low labeling of adjacent tissue
